{
  "source": "paper PMC2951136",
  "about": "(Journal of neurochemistry, 2009)",
  "target": "human dopamine transporter (hDAT) (Homo sapiens, UniProt Q01959)",
  "sequence (Q01959 whole entry)": "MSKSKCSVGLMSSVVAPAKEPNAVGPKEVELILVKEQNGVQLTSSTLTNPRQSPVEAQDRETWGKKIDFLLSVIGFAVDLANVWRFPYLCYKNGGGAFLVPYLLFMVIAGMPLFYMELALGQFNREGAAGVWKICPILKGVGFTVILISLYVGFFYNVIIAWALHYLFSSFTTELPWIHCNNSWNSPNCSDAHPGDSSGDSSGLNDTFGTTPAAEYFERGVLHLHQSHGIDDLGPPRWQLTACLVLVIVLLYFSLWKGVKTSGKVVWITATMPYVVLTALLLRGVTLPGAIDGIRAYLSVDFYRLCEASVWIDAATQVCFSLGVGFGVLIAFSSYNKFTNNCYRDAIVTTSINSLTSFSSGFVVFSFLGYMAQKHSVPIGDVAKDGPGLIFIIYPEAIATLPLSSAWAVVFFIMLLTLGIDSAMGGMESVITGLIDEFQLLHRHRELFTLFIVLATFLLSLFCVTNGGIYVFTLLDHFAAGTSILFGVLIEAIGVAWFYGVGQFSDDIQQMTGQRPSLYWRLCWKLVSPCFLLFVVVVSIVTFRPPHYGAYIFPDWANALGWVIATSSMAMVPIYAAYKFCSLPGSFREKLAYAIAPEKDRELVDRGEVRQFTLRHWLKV",
  "assay": "live-cell confocal imaging of ASP+ accumulation in hDAT-transfected EM4 cells",
  "format": "cell-based",
  "data": [
    {"smiles": "CCCCC/C=C\\C/C=C\\C/C=C\\C/C=C\\CCCC(=O)NCCO", "note": "[AEA, anandamide]", "values": [
      {"measurement": "IC50", "value": "3.2 ± 0.8", "unit": "µM"}
    ]}
  ]
}
